These results are taken from patent publication US20240218022A1, “ANTI-VISTA MACROCYCLIC PEPTIDES AND COMPOSITIONS” (BRISTOL-MYERS SQUIBB COMPANY, priority 2022, published 2024).

This assay deals with T1, mouse VISTA (mVISTA) (Mus musculus, UniProt Q9D659).
T1 construct: expressed in transfected cells; host or cells: Human embryonic kidney 293T cells
T1 sequence (Q9D659 33-308): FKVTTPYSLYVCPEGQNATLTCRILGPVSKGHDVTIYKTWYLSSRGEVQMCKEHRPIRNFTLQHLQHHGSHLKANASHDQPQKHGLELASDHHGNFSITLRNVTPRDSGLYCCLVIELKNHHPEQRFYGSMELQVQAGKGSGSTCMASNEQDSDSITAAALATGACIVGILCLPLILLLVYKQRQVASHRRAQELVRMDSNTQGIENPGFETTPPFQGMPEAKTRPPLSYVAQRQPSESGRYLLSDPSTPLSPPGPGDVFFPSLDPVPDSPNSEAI
In words: Cell-Based Binding High-Content Assay For mVISTA (HC CBA mVISTA). Particulars: read-out: HC CBA mVISTA IC50. The gist of the method: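 Read-out: Alexa 647–streptavidin signal imaged on fixed, Hoechst-stained mVISTA-293T cells, with IC50 taken from a four-parameter logistic curve. Compounds competed with 2 nM biotinylated peptide for 30 min at room temperature, tested under both no-wash and wash (1 h compound, media exchange, 1 h) formats.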

Where two headings read alike, the source gives them in different places. Starred links: 1 amine or outer side, 2 acyl side, 3 side chain; linkers in the order of their positions; H or OH if unused. Positions of bridges follow the written chain, without caps; N, C: chain ends. Non-standard residues stand in square brackets, D forms with d. Residues, ends and D or L forms follow the SMILES beside them. ξ: configuration not given here. Phe(3-Me) = Cc1cccc(C[C@H](N)C(=O)O)c1; γGlu = O=C(O)[C@H](CCC(=O)[*:2])N[*:1]; 2Nal = N[C@@H](Cc1ccc2ccccc2c1)C(=O)O; βAsp = O=C(O)[C@H](CC(=O)[*:2])N[*:1]; Pro(4ξ-F) = O=C(O)[C@@H]1CC(F)CN1; Ahp(2) = CCCCC[C@H](N)C(=O)O; NMeNle = CCCC[C@H](NC)C(=O)O; Tle = CC(C)(C)[C@H](N)C(=O)O; NHexGly = CCCCCCNCC(=O)O; Nle = CCCC[C@H](N)C(=O)O; Aun = NCCCCCCCCCCC(=O)O; Dab = NCC[C@H](N)C(=O)O; AEEA = NCCOCCOCC(=O)O

Take `CCCCCCN1CC(=O)N[C@@H](Cc2ccc(O)cc2)C(=O)N[C@@H](CCCC)C(=O)N[C@@H](CC(N)=O)C(=O)N[C@@H](CCCNC(=N)N)C(=O)N(C)[C@@H](CCCC)C(=O)N[C@@H](CCCCC)C(=O)N2CCC[C@H]2C(=O)N[C@@H](C(C)(C)C)C(=O)N[C@@H](CO)C(=O)N[C@H](C(=O)N[C@@H](CC(=O)NCCOCCOCC(=O)NCCCCCCCCCCC(=O)O)C(=O)O)CSCC(=O)N[C@@H](Cc2ccc3ccccc3c2)C(=O)N[C@@H](Cc2ccc(O)cc2)C(=O)N[C@@H](CC(=O)O)C1=O` [Example 2195] ({CH2CO}-[2Nal]YD[NHexGly]Y[Nle]NR[NMeNle][Ahp(2)]P[Tle]SC[βAsp][AEEA][Aun]-OH; thioether N-14): the IC50 stood at 30.3 nM.

Turning to `CCCCCCN1CC(=O)N[C@@H](Cc2ccc(O)cc2)C(=O)N[C@@H](CCCC)C(=O)N[C@@H](CC(N)=O)C(=O)N[C@@H](CCCNC(=N)N)C(=O)N(C)[C@@H](CCCC)C(=O)N[C@@H](CCCCC)C(=O)N2CC(F)C[C@H]2C(=O)N[C@@H](C(C)C)C(=O)N[C@@H](CO)C(=O)N[C@H](C(=O)N[C@@H](CC(=O)NCCOCCOCC(=O)NCCCCCCCCCCC(=O)O)C(=O)O)CSCC(=O)N[C@@H](Cc2ccccc2)C(=O)N[C@@H](Cc2c[nH]c3ccccc23)C(=O)N[C@@H](CC(=O)O)C1=O` (stereo partly shown) [Example 2196] ({CH2CO}-FWD[NHexGly]Y[Nle]NR[NMeNle][Ahp(2)][Pro(4ξ-F)]VSC[βAsp][AEEA][Aun]-OH; thioether N-14), the IC50 worked out at 28.4 nM. Take `CCCCCCN1CC(=O)N[C@@H](Cc2ccc(O)cc2)C(=O)N[C@@H](CCCC)C(=O)N[C@@H](CC(N)=O)C(=O)N[C@@H](CCCNC(=N)N)C(=O)N(C)[C@@H](CCCC)C(=O)N[C@@H](CCCCC)C(=O)N2CCC[C@H]2C(=O)N[C@@H](C(C)(C)C)C(=O)N[C@@H](CO)C(=O)N[C@H](C(=O)N[C@@H](CC(=O)NCCOCCOCC(=O)NCCCCCCCCCCC(=O)O)C(=O)O)CSCC(=O)N[C@@H](Cc2cccc(C)c2)C(=O)N[C@@H](Cc2c[nH]c3ccccc23)C(=O)N[C@@H](CC(=O)O)C1=O` [Example 2197] ({CH2CO}-[Phe(3-Me)]WD[NHexGly]Y[Nle]NR[NMeNle][Ahp(2)]P[Tle]SC[βAsp][AEEA][Aun]-OH; thioether N-14): the IC50 was 32.6 nM.

For the compound `CCCCCCN1CC(=O)N[C@@H](Cc2ccc(O)cc2)C(=O)N[C@@H](CCCC)C(=O)N[C@@H](CC(N)=O)C(=O)N[C@@H](CCCNC(=N)N)C(=O)N[C@@H](CC(C)C)C(=O)N[C@@H](CCCCC)C(=O)N2CCC[C@H]2C(=O)N[C@@H](C(C)C)C(=O)N[C@@H](CC(=O)O)C(=O)N[C@H](C(=O)NCCOCCOCC(=O)N[C@@H](CC(=O)NCCOCCOCC(=O)NCCCCCCCCCCC(=O)O)C(=O)O)CSCC(=O)N[C@@H](Cc2cccc(C)c2)C(=O)N[C@@H](Cc2c[nH]c3ccccc23)C(=O)N[C@@H](CC(=O)O)C1=O` [Example 2198] ({CH2CO}-[Phe(3-Me)]WD[NHexGly]Y[Nle]NRL[Ahp(2)]PVDC[AEEA][βAsp][AEEA][Aun]-OH; thioether N-14), the IC50 is 15.2 nM. As for `CCCCCCN1CC(=O)N[C@@H](Cc2ccc(O)cc2)C(=O)N[C@@H](CCCCC)C(=O)NCC(=O)N[C@@H](CCCNC(=N)N)C(=O)N[C@@H](CC(C)C)C(=O)N[C@@H](CCCCC)C(=O)N2CCC[C@H]2C(=O)N[C@@H](C(C)C)C(=O)N[C@@H](CO)C(=O)N[C@H](C(=O)NCCOCCOCC(=O)N[C@@H](CC(=O)NCCOCCOCC(=O)NCCCCCCCCCCC(=O)O)C(=O)O)CSCC(=O)N[C@@H](Cc2ccccc2)C(=O)N[C@@H](Cc2ccc(O)cc2)C(=O)N[C@@H](CC(=O)O)C1=O` [Example 2199] ({CH2CO}-FYD[NHexGly]Y[Ahp(2)]GRL[Ahp(2)]PVSC[AEEA][βAsp][AEEA][Aun]-OH; thioether N-14), the IC50 was 18.3 nM. `CCCCCCN1CC(=O)N[C@@H](Cc2ccc(O)cc2)C(=O)N[C@@H](CCCC)C(=O)N[C@@H](CC(N)=O)C(=O)N[C@@H](CCCNC(=N)N)C(=O)N(C)[C@@H](CCCC)C(=O)N[C@@H](CCCCC)C(=O)N2CCC[C@H]2C(=O)N[C@@H](C(C)C)C(=O)N[C@@H](CC(=O)O)C(=O)N[C@H](C(=O)NCCOCCOCC(=O)N[C@@H](CC(=O)NCCOCCOCC(=O)NCCCCCCCCCCC(=O)O)C(=O)O)CSCC(=O)N[C@@H](Cc2ccc3ccccc3c2)C(=O)N[C@@H](Cc2c[nH]c3ccccc23)C(=O)N[C@@H](CC(=O)O)C1=O` [Example 2200] ({CH2CO}-[2Nal]WD[NHexGly]Y[Nle]NR[NMeNle][Ahp(2)]PVDC[AEEA][βAsp][AEEA][Aun]-OH; thioether N-14): the IC50 was found to be 16.5 nM. On to `CCCCCCN1CC(=O)N[C@@H](Cc2ccc(O)cc2)C(=O)N[C@@H](CC(C)C)C(=O)N[C@@H](CC(N)=O)C(=O)N[C@@H](CCCNC(=N)N)C(=O)N[C@@H](CC(C)C)C(=O)N[C@@H](CCCCC)C(=O)N2CCC[C@H]2C(=O)N[C@@H](C(C)C)C(=O)N[C@@H](C(C)C)C(=O)N[C@H](C(=O)NCCOCCOCC(=O)N[C@@H](CC(=O)NCCOCCOCC(=O)NCCCCCCCCCCC(=O)O)C(=O)O)CSCC(=O)N[C@@H](Cc2ccccc2)C(=O)N[C@@H](Cc2ccc(O)cc2)C(=O)N[C@@H](CC(=O)O)C1=O` [Example 2201] ({CH2CO}-FYD[NHexGly]YLNRL[Ahp(2)]PVVC[AEEA][βAsp][AEEA][Aun]-OH; thioether N-14), for which the IC50 was 20.9 nM.

As for `CCCCCCN1CC(=O)N[C@@H](Cc2ccc(O)cc2)C(=O)N[C@@H](CCCC)C(=O)N[C@@H](CC(N)=O)C(=O)N[C@@H](CCCNC(=N)N)C(=O)N(C)[C@@H](CCCC)C(=O)N[C@@H](CCCCC)C(=O)N2CCC[C@H]2C(=O)N[C@@H](C(C)C)C(=O)N[C@@H](CC(=O)O)C(=O)N[C@H](C(=O)NCCOCCOCC(=O)N[C@@H](CC(=O)NCCOCCOCC(=O)NCCCCCCCCCCC(=O)O)C(=O)O)CSCC(=O)N[C@@H](Cc2ccccc2)C(=O)N[C@@H](Cc2c[nH]c3ccccc23)C(=O)N[C@@H](CC(=O)O)C1=O` [Example 2204] ({CH2CO}-FWD[NHexGly]Y[Nle]NR[NMeNle][Ahp(2)]PVDC[AEEA][βAsp][AEEA][Aun]-OH; thioether N-14), the IC50 was found to be 14.9 nM. Turning to `CCCCCCN1CC(=O)N[C@@H](Cc2ccc(O)cc2)C(=O)N[C@@H](CC(C)C)C(=O)N[C@@H](CC(=O)O)C(=O)N[C@@H](CCCNC(=N)N)C(=O)N(C)[C@@H](CCCC)C(=O)N[C@@H](CCCCC)C(=O)N2CCC[C@H]2C(=O)N[C@@H](C(C)(C)C)C(=O)N[C@@H](CC(N)=O)C(=O)N[C@H](C(=O)NCCOCCOCC(=O)N[C@@H](CC(=O)NCCOCCOCC(=O)NCCCCCCCCCCC(=O)O)C(=O)O)CSCC(=O)N[C@@H](Cc2ccccc2)C(=O)N[C@@H](Cc2cccc(C)c2)C(=O)N[C@@H](CC(=O)O)C1=O` [Example 2212] ({CH2CO}-F[Phe(3-Me)]D[NHexGly]YLDR[NMeNle][Ahp(2)]P[Tle]NC[AEEA][βAsp][AEEA][Aun]-OH; thioether N-14), the IC50 came to 34.9 nM.

Consider `CCCCCCN1CC(=O)N[C@@H](Cc2ccc(O)cc2)C(=O)N[C@@H](CC(C)C)C(=O)N[C@@H](CC(N)=O)C(=O)N[C@@H](CCCNC(=N)N)C(=O)N(C)[C@@H](CCCC)C(=O)N[C@@H](CCCCC)C(=O)N2CCC[C@H]2C(=O)N[C@@H](C(C)(C)C)C(=O)N[C@@H](CO)C(=O)N[C@H](C(=O)N[C@@H](CCC(=O)N[C@@H](CCN)C(=O)NCCCCCCCCCCC(=O)O)C(=O)O)CSCC(=O)N[C@@H](Cc2ccccc2)C(=O)N[C@@H](Cc2ccc(O)cc2)C(=O)N[C@@H](CC(=O)O)C1=O` [Example 2323] ({CH2CO}-FYD[NHexGly]YLNR[NMeNle][Ahp(2)]P[Tle]SC[γGlu][Dab][Aun]-OH; thioether N-14), for which, under “cell-based binding high-content assay”, the IC50 was found to be 33.9 nM.
